We go through 13 compounds from patent US9227973B2, “Pyridine CGRP receptor antagonists” (Merck Sharp & Dohme Corp., priority 2012, dated 2016).

T1 sequence (Q16602 23-461): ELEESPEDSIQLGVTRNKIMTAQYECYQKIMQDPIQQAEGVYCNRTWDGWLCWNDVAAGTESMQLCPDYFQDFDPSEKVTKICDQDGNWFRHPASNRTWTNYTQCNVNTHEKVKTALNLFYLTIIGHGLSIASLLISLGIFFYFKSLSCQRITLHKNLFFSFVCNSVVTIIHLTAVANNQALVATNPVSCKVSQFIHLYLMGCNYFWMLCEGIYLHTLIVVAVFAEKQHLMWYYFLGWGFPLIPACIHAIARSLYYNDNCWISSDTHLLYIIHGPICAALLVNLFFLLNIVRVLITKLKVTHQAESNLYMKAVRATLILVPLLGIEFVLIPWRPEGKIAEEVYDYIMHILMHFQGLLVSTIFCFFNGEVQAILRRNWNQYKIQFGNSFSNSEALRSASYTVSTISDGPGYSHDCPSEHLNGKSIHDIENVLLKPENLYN
T1 sequence (O60894 27-148): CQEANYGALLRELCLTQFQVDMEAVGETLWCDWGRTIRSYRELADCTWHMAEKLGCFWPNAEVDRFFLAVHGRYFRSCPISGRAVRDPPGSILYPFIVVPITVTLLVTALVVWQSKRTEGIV

The target in one assay is T1, recombinant human CL receptor/RAMP1 (CGRP receptor) (Homo sapiens (Human), UniProt O60894+Q16602). Kind of assay: Recombinant receptor functional assay (Assay C), cAMP HTRF. The conditions noted are these: Assay C: HEK 293 cells, 3,500 cells/well, human α-CGRP 1 nM, cAMP inflection point. Format: cell-based. As to the method:
Human RAMP1 (Genbank accession number AJ001014) was subcloned into the expression vector pIRESpuro2 (BD Biosciences Clontech) as a 5′NheI and 3′NotI fragment. […] Cells were subcultured by treatment with 0.25% trypsin with 0.1% EDTA in HBSS. Stable cell line generation was accomplished by co-transfecting 10 μg of DNA with 30 μg Lipofectamine 2000 (Invitrogen) in 75 cm^2 flasks. CL receptor and RAMP1 expression constructs were co-transfected in equal amounts. Twenty-four hours after transfection the cells were diluted and selective medium (growth medium+300 μg/mL hygromycin and 1 μg/mL puromycin) was added the following day. A clonal cell line was generated by single cell deposition utilizing a FACS Vantage SE (Becton Dickinson). Growth medium was adjusted to 150 μg/mL hygromycin and 0.5 μg/mL puromycin for cell propagation.
(Time-resolved FRET reads energy transfer from a long-lived donor to a nearby acceptor.)
By IC50 is commonly meant the concentration that gives 50% inhibition. As for `O=C(NC1COC(c2ccccc2)Cc2cccnc21)c1cnc2c(c1)C[C@@]1(C2)C(=O)Nc2ncccc21` (single isomer, unassigned; isomer a) [9 isomer A], the IC50 was found to be 1900 nM.
On the same count and under the same terms, then `O=C(NC1COC(c2ccccc2)Cc2cccnc21)c1cnc2c(c1)C[C@@]1(C2)C(=O)Nc2ncccc21` (single isomer, unassigned; isomer c) [9 isomer C], with 1100 nM.
In the case of `O=C(NC1COC(c2ccccc2)Cc2cccnc21)c1cnc2c(c1)C[C@@]1(C2)C(=O)Nc2ncccc21` (single isomer, unassigned; isomer b) [9 isomer B], the concentration for half-maximal inhibition (IC50) was found to be 1100 nM.

Another assay deals with T1, recombinant human CL receptor/RAMP1 (CGRP receptor). Kind of assay: Recombinant receptor functional assay (Assay B), cAMP HTRF. The conditions noted are these: Assay B: HEK 293 cells, 2,000 cells/well, human α-CGRP 1.2 nM, cAMP inflection point. Format: cell-based. As to the method: RECOMBINANT RECEPTOR: Human CL receptor (Genbank accession number L76380) was subcloned into the expression vector pIREShyg2 (BD Biosciences Clontech) as a 5′NheI and 3′ PmeI fragment. Human RAMP1 (Genbank accession number AJ001014) was subcloned into the expression vector pIRESpuro2 (BD Biosciences Clontech) as a 5′NheI and 3′NotI fragment. HEK 293 cells (human embryonic kidney cells; ATCC #CRL-1573) were cultured in DMEM with 4.5 g/L glucose, 1 mM sodium pyruvate and 2 mM glutamine supplemented with 10% fetal bovine serum (FBS), 100 units/mL penicillin and […] streptomycin, and maintained at 37° C. and 95% humidity. Cells were subcultured by treatment with 0.25% trypsin with 0.1% EDTA in HBSS. Stable cell line generation was accomplished by co-transfecting 10 μg of DNA with 30 μg Lipofectamine 2000 (Invitrogen) in 75 cm^2 flasks. CL receptor and RAMP1 expression constructs were co-transfected in equal amounts. Twenty-four hours after transfection the cells were diluted and selective medium (growth medium+300 μg/mL hygromycin and 1 μg/mL puromycin) was added the following day. A clonal cell line was generated by single cell deposition utilizing a FACS Vantage SE (Becton Dickinson). Growth medium was adjusted to 150 μg/mL hygromycin and 0.5 μg/mL puromycin for cell propagation.
RECOMBINANT RECEPTOR FUNCTIONAL ASSAY (Assay B): Cells were resuspended in DMEM/F12 (Hyclone) supplemented with 1 g/L BSA and 300 μM isobutyl-methylxanthine. Cells were then plated in a 384-well plate (Proxiplate Plus 384; 509052761; Perkin-Elmer) at a density of 2,000 cells/well and incubated with antagonist for 30 min at 37° C. Human α-CGRP was then added to the cells at a final concentration of 1.2 nM and incubated an additional 20 min at 37° C. Following agonist stimulation, the cells were processed for cAMP determination using the two-step procedure according to the manufacturer's recommended protocol (HTRF cAMP dynamic 2 assay kit; 62AM4PEC; Cisbio). Raw data were transformed into concentration of cAMP using a standard curve then dose response curves were plotted and inflection point (IP) values were determined
Take `O=C(NC1CC(c2ccccc2)Cc2cccnc21)c1cnc2c(c1)C[C@]1(C2)C(=O)Nc2ncccc21` (single isomer, unassigned; isomer b) [6 isomer B]: the IC50 stood at 150 nM.
On the same count and under the same terms, to `N[C@H]1c2cccnc2[C@@H](NC(=O)c2cnc3c(c2)C[C@@]2(C3)C(=O)Nc3ncccc32)CC[C@H]1c1cccc(F)c1F` [Example 4, (6S)—N-[(5R,6S,9S)-5-Amino-6-(2,3-difluorophenyl)-6,7,8,9-tetrahydro-5H-cyclohepta[b]pyridin-9-yl]-2′-oxo-1′,2′,5,7-tetrahydrospiro[cyclopenta[b]pyridine-6,3′-pyrrolo[2,3-b]pyridine]-3-carboxamide] belongs 65 nM.
Same read-out and setting: to `O=C(NC1CC(c2ccccc2)Cc2cccnc21)c1cnc2c(c1)C[C@@]1(C2)C(=O)Nc2ncccc21` (single isomer, unassigned; isomer a) [5 isomer A] belongs 22 nM; to `O=C(N[C@@H]1CC[C@@H](c2cccc(F)c2F)Cc2cccnc21)c1cnc2c(c1)C[C@@]1(C2)C(=O)Nc2ncccc21` [Example 7B, (S)—N-((6R,9R)-6-(2,3-difluorophenyl)-6,7,8,9-tetrahydro-5H-cyclohepta[b]pyridin-9-yl)-2′-oxo-1′,2′,5,7-tetrahydrospiro[cyclopenta[b]pyridine-6,3′-pyrrolo[2,3-b]pyridine]-3-carboxamide], 4.5 nM; to `O=C(N[C@H]1CC[C@H](c2cccc(F)c2F)Cc2cccnc21)c1cnc2c(c1)C[C@@]1(C2)C(=O)Nc2ncccc21` [Example 7A, (S)—N-((6S,9S)-6-(2,3-difluorophenyl)-6,7,8,9-tetrahydro-5H-cyclohepta[b]pyridin-9-yl)-2′-oxo-1′,2′,5,7-tetrahydrospiro[cyclopenta[b]pyridine-6,3′-pyrrolo[2,3-b]pyridine]-3-carboxamide], 380 nM.
On the same count and under the same terms, then `N[C@@H]1c2cccnc2[C@@H](NC(=O)c2cnc3c(c2)C[C@@]2(C3)C(=O)Nc3ncccc32)CC[C@H]1c1cccc(F)c1F` [Example 2, (6S)—N-[(5S,6S,9S)-5-Amino-6-(2,3-difluorophenyl)-6,7,8,9-tetrahydro-5H-cyclohepta[b]pyridin-9-yl]-2′-oxo-1′,2′,5,7-tetrahydrospiro[cyclopenta[b]pyridine-6,3′-pyrrolo[2,3-b]pyridine]-3-carboxamide], with 290 nM.
Regarding `N[C@@H]1c2cccnc2[C@H](NC(=O)c2cnc3c(c2)C[C@@]2(C3)C(=O)Nc3ncccc32)CC[C@H]1c1cccc(F)c1F` [Example 1, (6S)—N-[(5S,6S,9R)-5-Amino-6-(2,3-difluorophenyl)-6,7,8,9-tetrahydro-5H-cyclohepta[b]pyridin-9-yl]-2′-oxo-1′,2′,5,7-tetrahydrospiro[cyclopenta[b]pyridine-6,3′-pyrrolo[2,3-b]pyridine]-3-carboxamide], the IC50 turned out to be 0.93 nM.
In the case of `O=C(NC1CC(c2ccccc2)Cc2cccnc21)c1cnc2c(c1)C[C@]1(C2)C(=O)Nc2ncccc21` (single isomer, unassigned; isomer b) [5 isomer B], the IC50 was 4600 nM.
On the same count and under the same terms, to `N[C@H]1c2cccnc2[C@H](NC(=O)c2cnc3c(c2)C[C@@]2(C3)C(=O)Nc3ncccc32)CC[C@H]1c1cccc(F)c1F` [Example 3, (6S)—N-[(5R,6S,9R)-5-Amino-6-(2,3-difluorophenyl)-6,7,8,9-tetrahydro-5H-cyclohepta[b]pyridin-9-yl]-2′-oxo-1′,2′,5,7-tetrahydrospiro[cyclopenta[b]pyridine-6,3′-pyrrolo[2,3-b]pyridine]-3-carboxamide] belongs 6.3 nM; to `O=C(NC1CC(c2ccccc2)Cc2cccnc21)c1cnc2c(c1)C[C@@]1(C2)C(=O)Nc2ncccc21` (single isomer, unassigned; isomer a) [6 isomer A], 78 nM.
